Measurements published in patent publication US20060040919A1, “Bronchorelaxing compounds” (priority 2004, published 2006).

Tests used:
[1] = system: human bronchus preparation; assay: Bronchorelaxation test: LTD4-induced contraction of human bronchus preparation; settings: 10 μM capsazepine, 1 h exposure, then 10 nM LTD4; compared with control LTD4 contraction; exemplary test of FIG. 7
Protocol: Dissection and mounting of lung tissue preparations. Lung tissue was obtained from patients undergoing lobectomia or pulmectomia due to lung carcinoma. The tissue was placed in a dissection chamber continuously perfused with 10 ml min^−1 of a physiological saline solution (PSS) at room temperature. An airway was identified in the cut part of the lobe, and a bronchus of 10-20 mm length and 1-2 mm diameter was obtained. The bronchus was cut into rings of a width of about 2-3 mm. Each bronchial ring was cleaved to obtain an about rectangular oblong preparation, one end of which was tied to a small steel hook connected to a force transducer, while the other end of the preparation was attached to a fixed hook. This is followed by a period of adjustment, as described below. The preparation was mounted in an atmosphere containing […] and 6% of CO2.
Experimental chamber. The experimental chamber has a volume of 5 ml. It is perfused with PSS at a rate of 3 ml min^−1. Two preparations are mounted in the chamber, and measurements on them are performed in parallel. For mechanical tensioning each force transducer (AME 801, SensoNor A/S, Horten, Norway) is connected to a micrometer screw. The substances to be tested, the reference substance (capsazepine), and transmitter (LTD4) are injected upstream of the preparation(s).
Materials. […]

Structure (SMILES)	remaining contraction (test force) relative to that caused by the control force [1]	melting point [°C]
Oc1cc2c(cc1O)CN(C(=S)NCCc1ccc(Cl)cc1)CCC2 [capsazepine]	about 55%	
Oc1c(O)c(Cl)c2c(c1Cl)CCN(C(=S)NCCc1ccc(Cl)cc1)C2 [Res-4-95, 5,8-Dichloro-N-[2-(4-chlorophenyl)ethyl]-6,7-dihydroxy-3,4-dihydroisoquinoline-2(1H)-carbothioamide]		83 to 86
